These are literature values, as cited in patent US20230167121A1, “SUBSTITUTED {1,2,4,} TRIAZOLO{1,5-A} PYRIMIDINE COMPOUNDS AND USE IN STABILIZING MICROTUBULES” (THE TRUSTEES OF THE UNIVERSITY OF PENNSYLVANIA, priority 2020, published 2023).

The test system of this data set is MTs. The conditions noted are these: cited from earlier work.

Take `CO[C@H]1C[C@H]2CC[C@@H](C1)N2c1c(-c2c(F)cc(F)cc2F)c(Cl)nc2ncnn12` [Compound 2]: the “binding to MTs / unpolymerized tubulin heterodimers” value was “binds exclusively to MTs and not to unpolymerized tubulin heterodimers”.
